The source of these data is patent US9896441B2 (Lycera Corporation, priority 2014, dated 2018).

The first assay deals with T1, Gal4-RORγ-LBD (Homo sapiens, UniProt P51449).
T1 construct: expressed in transfected cells
T1 sequence (P51449 269-508 limits assumed): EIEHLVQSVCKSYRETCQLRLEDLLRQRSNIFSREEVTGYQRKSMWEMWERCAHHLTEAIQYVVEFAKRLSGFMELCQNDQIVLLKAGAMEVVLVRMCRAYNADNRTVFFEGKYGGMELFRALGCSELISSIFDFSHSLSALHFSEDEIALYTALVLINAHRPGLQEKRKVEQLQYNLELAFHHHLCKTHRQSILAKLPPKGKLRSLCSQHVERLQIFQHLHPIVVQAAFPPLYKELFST
Kind of assay: Gal4-RORγ Luciferase Reporter Assay in HEK-293T Cells. The assay is classed as cell-based. The note with it: HEK-293 cells, luciferase reporter, in presence of ursolic acid. As for the experimental part: Assay procedures and results are described below.
In the following protocol, HEK-293 cells were transfected with a construct comprising the Gal4 DNA binding domain fused to the ligand binding domain of RORγ (Gal4-RORγ-LBD) in a pcDNA3.1neo plasmid, and also with a reporter construct comprising pGL4.31 Gal4-luciferase (Promega). Control cells were prepared similarly using empty pcDNA3.1neo and pGL4.31 vectors.
Trans-IT reagent (Mirus, 60 μL) at room temperature was added drop wise to OptiMEM (Invitrogen, 1.5 ml). This reagent mixture was mixed by inversion then incubated for 5 to 30 minutes at room temperature. It then was added to a solution of both expression vectors (5 μg each), mixed, and incubated at room temperature for about 20 minutes. HEK-293 cells were harvested from incubation flasks by removing the media, treating with TrypLE Express (Invitrogen), and incubating until the cells detached from the bottom of the flask (approximately 2-5 minutes). 10 Million cells were collected by centrifugation and re-suspended in 10 mL of Dulbecco's Modified Eagle Medium, High Glucose (DMEM, Invitrogen) containing 10% Fetal Bovine Serum and 100 IU each of penicillin and streptomycin. The re-suspended cells and the transfection mixture were added to a T75 flask, mixed and incubated overnight at 37° C. and 5% CO2.
The cells were harvested as described above, counted, and centrifuged to obtain the desired number of cells, then re-suspended in complete growth media at 0.75×10^6 cells/mL. The RORγ antagonist, ursolic acid, was added to the cells at a final concentration of […]. Cells were plated at 20 µL of cell suspension/well (10,000-15,000 cells/well) in white tissue culture treated 384 well plates. Test compounds were dissolved at 10 mM in DMSO then diluted into complete growth medium to 5× the final intended test concentration. These drug stock solutions, 5 µL/well were added to the tissue culture plate. The final DMSO concentration was 0.2%. The plates were briefly centrifuged then incubated overnight at 37° C. and 5% CO2. To conduct the assay, the tissue culture plates were allowed to equilibrate to room temperature and One-Glo luciferase reagent (Promega, 25 µL/well) was added. The plates were briefly centrifuged then incubated at room temperature for 10 minutes. The luciferase intensity was read on an Envision plate reader (Perkin Elmer). […] The luciferase signal in the absence of ursolic acid or test compound is defined at 100. The Max Response is the upper plateau in the signal as determined by line-fit using a 4-parameter logistic model in PRISM (GraphPad).
In the case of `C/C(=C\c1ccc2c(c1)N(S(=O)(=O)c1cccc(C(F)(F)F)c1)C[C@H](CCC(=O)N1CC(C#N)C1)O2)c1c(F)cccc1Cl` [Example 127M, (S,E)-1-(3-(6-(2-(2-chloro-6-fluorophenyl)-prop-1-en-1-yl)-4-((3-(trifluoromethyl)phenyl)-sulfonyl)-3,4-dihydro-2H-benzo[b][1,4]oxazin-2-yl)propanoyl)azetidine-3-carbonitrile], the EC50 was less than 500 nM.

In the case of `CC(=O)NC1CN(C(=O)CC[C@H]2CN(S(=O)(=O)c3cccc(C(F)(F)F)c3)c3cc(/C=C(\C)c4c(F)cccc4Cl)ccc3O2)C1` [Example 127N, (S,E)-N-(1-(3-(6-(2-(2-chloro-6-fluorophenyl)-prop-1-en-1-yl)-4-((3-(trifluoromethyl)phenyl)-sulfonyl)-3,4-dihydro-2H-benzo[b][1,4]oxazin-2-yl)propanoyl)azetidin-3-yl)acetamide], the EC50 was less than 500 nM.

Still in this assay, the particulars now being: HEK-293 cells, luciferase reporter, in presence of ursolic acid, maximum response.
As to `C/C(=C\c1ccc2c(c1)N(S(=O)(=O)c1cccc(C(F)(F)F)c1)C[C@H](CCC(=O)N1C3CCC1COC3)O2)c1c(F)cccc1Cl` [Example 127K, 1-(3-oxa-8-azabicyclo-[3.2.1]octan-8-yl)-3-((S)-6-((E)-2-(2-chloro-6-fluorophenyl)prop-1-en-1-yl)-4-((3-(trifluoro-methyl)phenyl)sulfonyl)-3,4-dihydro-2H-benzo[b][1,4]oxazin-2-yl)propan-1-one], the “Gal4-RORγ Assay Max Response” value is recorded as “** (a value in the range of greater than 90 to 150)”.

Consider `C/C(=C\c1ccc2c(c1)N(S(=O)(=O)c1cccc(C(F)(F)F)c1)C[C@H](CCC(=O)N1CC(O)C1)O2)c1c(F)cccc1Cl` [Example 127L, (S,E)-3-(6-(2-(2-chloro-6-fluorophenyl)prop-1-en-1-yl)-4-((3-(trifluoro-methyl)phenyl)sulfonyl)-3,4-dihydro-2H-benzo[b][1,4]oxazin-2-yl)-1-(3-hydroxyazetidin-1-yl)propan-1-one], for which the “Gal4-RORγ Assay Max Response” value is “* (a value in the range of 30 to 90)”.

As for `C/C(=C\c1ccc2c(c1)N(S(=O)(=O)c1cccc(C(F)(F)F)c1)C[C@H](CCC(=O)N1CC(C#N)C1)O2)c1c(F)cccc1Cl` [Example 127M, (S,E)-1-(3-(6-(2-(2-chloro-6-fluorophenyl)-prop-1-en-1-yl)-4-((3-(trifluoromethyl)phenyl)-sulfonyl)-3,4-dihydro-2H-benzo[b][1,4]oxazin-2-yl)propanoyl)azetidine-3-carbonitrile], the “Gal4-RORγ Assay Max Response” value is reported as “** (a value in the range of greater than 90 to 150)”.

With `CC(=O)NC1CN(C(=O)CC[C@H]2CN(S(=O)(=O)c3cccc(C(F)(F)F)c3)c3cc(/C=C(\C)c4c(F)cccc4Cl)ccc3O2)C1` [Example 127N, (S,E)-N-(1-(3-(6-(2-(2-chloro-6-fluorophenyl)-prop-1-en-1-yl)-4-((3-(trifluoromethyl)phenyl)-sulfonyl)-3,4-dihydro-2H-benzo[b][1,4]oxazin-2-yl)propanoyl)azetidin-3-yl)acetamide], the “Gal4-RORγ Assay Max Response” value is recorded as “** (a value in the range of greater than 90 to 150)”.

Staying with this assay, now noted: HEK-293 cells, luciferase reporter, with ursolic acid.
With `CC/C(=C\c1ccc2c(c1)N(S(=O)(=O)c1cccc(C(F)(F)F)c1)C[C@H](CCC(=O)O)O2)c1ccccc1Cl` [Example 36A, (S,E)-3-(6-(2-(2-chlorophenyl)but-1-en-1-yl)-4-((3-(trifluoromethyl)-phenyl)sulfonyl)-3,4-dihydro-2H-benzo[b][1,4]oxazin-2-yl)propanoic acid], the concentration giving a half-maximal response (EC50) is less than 500 nM.

`CC/C(=C\c1ccc2c(c1)N(S(=O)(=O)c1cccc(C(F)(F)F)c1)C[C@H](CCC(=O)OC)O2)c1ccccc1` [Example 36B, methyl (S,E)-3-(6-(2-phenylbut-1-en-1-yl)-4-((3-(trifluoromethyl)-phenyl)sulfonyl)-3,4-dihydro-2H-benzo[b][1,4]oxazin-2-yl)propanoate] returned an EC50 of more than 10000 nM.

Consider `O=C(O)CC[C@H]1CN(S(=O)(=O)c2cccc(C(F)(F)F)c2)c2cc(/C=C3\CCc4ccccc43)ccc2O1` [Example 38C, (S,E)-3-(6-((2,3-dihydro-1H-inden-1-ylidene)methyl)-4-((3-(trifluoromethyl)phenyl)sulfonyl)-3,4-dihydro-2H-benzo[b][1,4]-oxazin-2-yl)propanoic acid], for which the half-maximal effective concentration (EC50) fell in the range of 500 to 5000 nM.

`CCOc1nn2c(c1S(=O)(=O)N1C[C@H](CCC(=O)OC)Oc3ccc(/C=C(\C)c4c(F)cccc4Cl)cc31)CCCC2` [Example 65, Methyl (S,E)-3-(6-(2-(2-chloro-6-fluorophenyl)prop-1-en-1-yl)-4-((2-ethoxy-4,5,6,7-tetrahydropyrazolo[1,5-a]pyridin-3-yl)sulfonyl)-3,4-dihydro-2H-benzo[b][1,4]oxazin-2-yl)propanoate]: the EC50 is 500 to 5000 nM.

Regarding `CCOc1nn2c(c1S(=O)(=O)N1C[C@H](CCC(=O)O)Oc3ccc(/C=C(\C)c4c(F)cccc4Cl)cc31)CCCC2` [Example 66, (S,E)-3-(6-(2-(2-Chloro-6-fluorophenyl)prop-1-en-1-yl)-4-((2-ethoxy-4,5,6,7-tetrahydropyrazolo[1,5-a]pyridin-3-yl)sulfonyl)-3,4-dihydro-2H-benzo[b][1,4]oxazin-2-yl)propanoic acid], the EC50 was less than 500 nM.

With `C/C(=C\c1ccc2c(c1)N(S(=O)(=O)c1cccc(C(F)(F)F)c1)C[C@H](CCC(=O)O)O2)c1c(Cl)cccc1Cl` [Example 86AE, (S,E)-3-(6-(2-(2,6-dichlorophenyl)prop-1-en-1-yl)-4-((3-(trifluoromethyl)phenyl)-sulfonyl)-3,4-dihydro-2H-benzo[b][1,4]oxazin-2-yl)propanoic acid], the EC50 was less than 500 nM.

As to `COC(=O)CC[C@H]1CN(S(=O)(=O)c2cccc(C(F)(F)F)c2)c2cc(/C=C(\C)c3ccccc3OC)ccc2O1` [Example 86AJ, (S,E)-methyl 3-(6-(2-(2-methoxyphenyl)prop-1-en-1-yl)-4-((3-(trifluoromethyl)phenyl)sulfonyl)-3,4-dihydro-2H-benzo[b][1,4]-oxazin-2-yl)propanoate], the EC50 is less than 500 nM.

Turning to `C/C(=C\c1ccc2c(c1)N(S(=O)(=O)c1cc(F)cc(C(F)(F)F)c1)C[C@H](CCC(=O)O)O2)c1c(F)cccc1Cl` [Example 86AQ, (S,E)-3-(6-(2-(2-chloro-6-fluorophenyl)-prop-1-en-1-yl)-4-((3-fluoro-5-(trifluoromethyl)-phenyl)sulfonyl)-3,4-dihydro-2H-benzo[1,4]oxazin-2-yl)propanoic acid], the concentration giving a half-maximal response (EC50) was less than 500 nM.

Consider `CC(C)c1ccccc1/C=C/c1ccc2c(c1)N(S(=O)(=O)c1cccc(C(F)(F)F)c1)C[C@H](CCC(=O)O)O2` [Example 89CB, (S,E)-3-(6-(2-isopropylstyryl)-4-((3-(trifluoromethyl)-phenyl)-sulfonyl)-3,4-dihydro-2H-benzo[b][1,4]oxazin-2-yl)propanoic acid], for which the EC50 is 500 to 5000 nM.

Turning to `COC(=O)CC[C@H]1CN(S(=O)(=O)c2cccc(C(F)(F)F)c2)c2cc(/C=C/c3cccnc3C(F)(F)F)ccc2O1` [Example 89DF, methyl (S,E)-3-(4-((3-(trifluoromethyl)phenyl)-sulfonyl)-6-(2-(2-(trifluoromethyl)pyridin-3-yl)vinyl)-3,4-dihydro-2H-benzo[b][1,4]oxazin-2-yl)propanoate], the EC50 is more than 10000 nM.

As for `COC(=O)CC[C@H]1CN(S(=O)(=O)c2cccc(C(F)(F)F)c2)c2cc(/C=C/c3ncccc3F)ccc2O1` [Example 89DG, methyl (S,E)-3-(6-(2-(3-fluoropyridin-2-yl)vinyl)-4-((3-(trifluoromethyl)phenyl)-sulfonyl)-3,4-dihydro-2H-benzo[b][1,4]oxazin-2-yl)propanoate], the half-maximal effective concentration (EC50) is more than 10000 nM.

Consider `O=C(O)CC[C@H]1CN(S(=O)(=O)c2cccc(C(F)(F)F)c2)c2cc(/C=C3\CCCOC3)ccc2O1` [Example 95I, (S,E)-3-(6-((dihydro-2H-pyran-3(4H)-ylidene)methyl)-4-((3-(trifluoromethyl)phenyl)sulfonyl)-3,4-dihydro-2H-benzo[b][1,4]oxazin-2-yl)propanoic acid], for which the concentration giving a half-maximal response (EC50) was in the range of 500 to 5000 nM.

A word on the EC50: it is the midpoint of the concentration-response curve.
